Consider eight molecules from patent publication US9227971B2, “Pyrazolo[1,5-a]pyrimidine compounds as mTOR inhibitors” (Merck Sharp & Dohme Corp., priority 2010, dated 2016).

The subject of experiment [1] is phosphorylated AKT Ser473 (pAKT S473), mTORC2 activity, PC3 cells. Nature of the experiment: mTOR target engagement assay, immunofluorescent cell-based, pAKT S473 readout (mTORC2 activity). As to conditions: Homo sapiens. In short, it runs like this: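 After blocking, cells were stained overnight at 4 °C with anti-pAKT S473 antibody, then a fluorescent secondary; inhibition was read as reduced fluorescence intensity.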

In experiment [2] the test system is phosphorylated 4E-BP1 Thr37/46 (p4E-BP1 Thr37/46), mTORC1 activity, PC3 cells. Nature of the experiment: mTOR target engagement assay, immunofluorescent cell-based, p4E-BP1 Thr37/46 readout (mTORC1 activity). As to conditions: Homo sapiens, read-out: p4E-BP1 Thr37/46 IC50. Put shortly:
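Seed PC3 cells overnight; treat with compound dilutions for ninety minutes at 37° C; fix with glyoxal and block; stain with anti-p4E-BP1 Thr37/46 overnight at 4° C, then fluorescent secondary; read fluorescence and fit IC50 against DMSO-only controls.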

Where [3] appears, read: PC-3, PC3 cells, compound treatment ninety minutes at 37° C.

Where two headings read alike, the source gives them in different places.

On to `CS(=O)(=O)c1c([C@@H]2C[C@H]3CC[C@@H](C2)N3C#N)nc2c(-c3ccc(-c4ccccc4)nc3)cnn2c1N` [Compound 8.70, (1R,3s,5S)-3-(7-amino-6-(methylsulfonyl)-3-(6-phenylpyridin-3-yl)pyrazolo[1,5-a]pyrimidin-5-yl)-8-azabicyclo[3.2.1]octane-8-carbonitrile], for which the IC50 in experiment [1] (PC-3, PC3 cells) lay in the range of 100 to 1000 nM; in experiment [2] (PC-3, PC3 cells), 1000 to 10000 nM.
Take `CC(=O)c1c([C@@H]2C[C@H]3CC[C@@H](C2)N3C(=O)c2nnc[nH]2)nc2c(-c3cccnc3)cnn2c1N` [Compound 1.1.80, 1-(5-((1R,3s,5S)-8-(4H-1,2,4-triazole-3-carbonyl)-8-azabicyclo[3.2.1]octan-3-yl)-7-amino-3-(pyridin-3-yl)pyrazolo[1,5-a]pyrimidin-6-yl)ethanone]: the IC50 in experiment [1] (setting [3]) and in experiment [2] (setting [3]) was 100 to 1000 nM throughout.
With `Nc1nnc(C(=O)N2[C@@H]3CC[C@H]2C[C@H](c2nc4c(-c5ccc(C(N)(C(F)(F)F)C(F)(F)F)nc5)cnn4c(N)c2C2CC2)C3)[nH]1` [Compound 7.88, ((1R,3s,5S)-3-(7-amino-3-(6-(2-amino-1,1,1,3.3,3-hexafluoropropan-2-yl)pyridin-3-yl)-6-cyclopropylpyrazolo [1,5-a]pyrimidin-5-yl)-8-azabicyclo[3.2.1]octan-8-yl)(5-amino-4H-1,2,4-triazol-3-yl)methanone], the IC50 was in the range of 1000 to 10000 nM in experiment [1] (PC-3, PC3 cells) and 1000 to 10000 nM in experiment [2] (PC-3, PC3 cells).
In the case of `CC(=O)c1c([C@@H]2C[C@H]3CC[C@@H](C2)N3C(=O)c2nnc[nH]2)nc2c(-c3ccc(C4(O)CCC4)nc3)cnn2c1N` [Compound 7.40, 1-(5-((1R,3s,5S)-8-(4H-1,2,4-triazole-3-carbonyl)-8-azabicyclo[3.2.1]octan-3-yl)-7-amino-3-(6-(1-hydroxycyclobutyl)pyridin-3-yl)pyrazolo[1,5-a]pyrimidin-6-yl)ethanone], the IC50 in experiment [1] (PC-3, Table 7-8, PC3 cells) lay in the range of 1 to 100 nM; in experiment [2] (PC-3, Table 7-8, PC3 cells) it was 1 to 100 nM.
As to `CC(=O)c1c([C@@H]2C[C@H]3CC[C@@H](C2)N3C(=O)CO)nc2c(-c3ccc(C(O)C(F)(F)F)nc3)cnn2c1N` (stereo partly drawn) [Compound 7.67, 1-((1R,3s,5S)-3-(6-acetyl-7-amino-3-(6-(2,2,2-trifluoro-1-hydroxyethyl)pyridin-3-yl)pyrazolo[1,5-a]pyrimidin-5-yl)-8-azabicyclo[3.2.1]octan-8-yl)-2-hydroxyethanone], the IC50 in experiment [1] (PC-3, PC3 cells) lay in the range of 1000 to 10000 nM; in experiment [2] (PC-3, PC3 cells), 100 to 1000 nM.
For `CS(=O)(=O)c1c([C@@H]2C[C@H]3CC[C@@H](C2)N3C(=O)c2nnc[nH]2)nc2c(-c3ccc(OC4CCC4)nc3)cnn2c1N` [Compound 8.53, ((1R,3s,5S)-3-(7-amino-3-(6-cyclobutoxypyridin-3-yl)-6-(methylsulfonyl)pyrazolo[1,5-a]pyrimidin-5-yl)-8-azabicyclo[3.2.1]octan-8-yl)(4H-1,2,4-triazol-3-yl)methanone], the IC50 in experiment [1] (PC-3, PC3 cells) lay within 1000 to 10000 nM; in experiment [2] (PC-3, PC3 cells), 1000 to 10000 nM.
`CC(=O)c1c([C@@H]2C[C@H]3CC[C@@H](C2)N3C(=O)CO)nc2c(-c3ccc(-n4cc(C)cn4)nc3)cnn2c1N` [Compound 1.1.134, 1-((1R,3s,5S)-3-(6-acetyl-7-amino-3-(6-(4-methyl-1H-pyrazol-1-yl)pyridin-3-yl)pyrazolo[1,5-a]pyrimidin-5-yl)-8-azabicyclo[3.2.1]octan-8-yl)-2-hydroxyethanone]: the IC50 in experiment [1] (setting [3]) was in the range of 1 to 100 nM; in experiment [2] (setting [3]), 100 to 1000 nM.
The corresponding values for `Nc1cc([C@@H]2C[C@H]3CC[C@@H](C2)N3C(=O)CO)nc2c(-c3ccc(-c4ccccc4)nc3)cnn12` [Compound 2.8, 1-((1R,3s,5S)-3-(7-amino-3-(6-phenylpyridin-3-yl)pyrazolo[1,5-a]pyrimidin-5-yl)-8-azabicyclo[3.2.1]octan-8-yl)-2-hydroxyethanone] are 100 to 1000 nM and 1000 to 10000 nM.
